Earlier results, collected in patent publication US20020081339A1, “Treatment of inoperable tumors by stereotactic injection of microspheres” (priority 2000, published 2002).

Conditions: hydrophilic molecule

In the case of `O=c1[nH]cc(F)c(=O)[nH]1` [5-FU, 5-fluorouracil], the “crossing of the blood-brain barrier” value is listed as “crosses the blood-brain barrier very weakly”.
